Assay results reported in patent US3960833A, “Butirosin A 3",5"-O-isopropylidene derivatives” (Bristol-Myers Company, priority 1975, dated 1976).
Converted amounts (≈) assume the structure as drawn.

Key:
Assay type in all cases: cell-based
[1] = test system: Ps. aeruginosa A9930; test: MIC by Steers agar-dilution method on Mueller-Hinton medium; conditions: Pseudomonas aeruginosa; Ps. aeruginosa A9930; Mueller-Hinton medium; read-out: MIC
Excerpt: (§1) Illustrated below is a table showing the minimal inhibitory concentrations (MIC's) of butirosin A, 4'-deoxybutirosin A and compound 11 (BB-K186) against a variety of gram-positive and gram-negativebacteria as obtained by the Steers agar-dilution method on Mueller-Hinton medium.

[2] = test system: E. coli ML1630; test: as above; conditions: Escherichia coli; E. coli ML1630; Mueller-Hinton medium; read-out: MIC
Excerpt: as §1

[3] = test system: K. pneumoniae D11; test: as above; conditions: Klebsiella pneumoniae; K. pneumoniae D11; Mueller-Hinton medium; read-out: MIC
Excerpt: as §1

[4] = test system: K. pneumoniae 22-3038; test: as above; conditions: Klebsiella pneumoniae, 223038; K. pneumoniae 22-3038; Mueller-Hinton medium; read-out: MIC
Excerpt: as §1

[5] = test system: Ps. aeruginosa No. 130; test: as above; conditions: Pseudomonas aeruginosa; Ps. aeruginosa No. 130; Mueller-Hinton medium; read-out: MIC
Excerpt: as §1

[6] = test system: E. coli A20107; test: as above; conditions: Escherichia coli; E. coli A20107; Mueller-Hinton medium; read-out: MIC
Excerpt: as §1

[7] = test system: Prov. stuartii A20894; test: as above; conditions: Providencia stuartii; Prov. stuartii A20894; Mueller-Hinton medium; read-out: MIC
Excerpt: as §1

[8] = test system: Ser. marcescens A21247; test: as above; conditions: Serratia marcescens; Ser. marcescens A21247; Mueller-Hinton medium; read-out: MIC
Excerpt: as §1

[9] = test system: S. aureus Smith; test: as above; conditions: Staphylococcus aureus; S. aureus Smith; Mueller-Hinton medium; read-out: MIC
Excerpt: as §1

[10] = test system: Ps. aeruginosa A20601; test: as above; conditions: Pseudomonas aeruginosa; Ps. aeruginosa A20601; Mueller-Hinton medium; read-out: MIC
Excerpt: as §1

[11] = test system: E. coli PO1495; test: as above; conditions: Escherichia coli
Excerpt: as §1

[12] = test system: Ps. aeruginosa A20635; test: as above; conditions: Pseudomonas aeruginosa; Ps. aeruginosa A20635; Mueller-Hinton medium; read-out: MIC
Excerpt: as §1

[13] = test system: S. aureus D137; test: as above; conditions: Staphylococcus aureus; S. aureus D137; Mueller-Hinton medium; read-out: MIC
Excerpt: as §1

[14] = test system: Ps. aeruginosa GN-315; test: as above; conditions: Pseudomonas aeruginosa, GN315; Ps. aeruginosa GN-315; Mueller-Hinton medium; read-out: MIC
Excerpt: as §1

[15] = test system: Pr. vulgaris A9436; test: as above; conditions: Proteus vulgaris; Pr. vulgaris A9436; Mueller-Hinton medium; read-out: MIC
Excerpt: as §1

[16] = test system: Ps. aeruginosa A20896; test: as above; conditions: Pseudomonas aeruginosa; Ps. aeruginosa A20896; Mueller-Hinton medium; read-out: MIC
Excerpt: as §1

[17] = test system: E. coli A20732; test: as above; conditions: Escherichia coli; E. coli A20732; Mueller-Hinton medium; read-out: MIC
Excerpt: as §1

[18] = test system: E. coli NR79/W677; test: as above; conditions: Escherichia coli
Excerpt: as §1

[19] = test system: Pr. mirabilis A9554; test: as above; conditions: Proteus mirabilis; Pr. mirabilis A9554; Mueller-Hinton medium; read-out: MIC
Excerpt: as §1

[20] = test system: Ent. cloacae A20364; test: as above; conditions: Enterobacter cloacae; Ent. cloacae A20364; Mueller-Hinton medium; read-out: MIC
Excerpt: as §1

[21] = test system: S. aureus D193; test: as above; conditions: Staphylococcus aureus; S. aureus D193; Mueller-Hinton medium; read-out: MIC
Excerpt: as §1

[22] = test system: S. aureus A20239; test: as above; conditions: Staphylococcus aureus; S. aureus A20239; Mueller-Hinton medium; read-out: MIC
Excerpt: as §1

[23] = test system: S. aureus D133; test: as above; conditions: Staphylococcus aureus; S. aureus D133; Mueller-Hinton medium; read-out: MIC
Excerpt: as §1

[24] = test system: E. coli NIHJ; test: as above; conditions: Escherichia coli; E. coli NIHJ; Mueller-Hinton medium; read-out: MIC
Excerpt: as §1

[25] = test system: E. coli JR66/W677; test: as above; conditions: Escherichia coli
Excerpt: as §1

[26] = test system: Ent. cloacae A21006; test: as above; conditions: Enterobacter cloacae; Ent. cloacae A21006; Mueller-Hinton medium; read-out: MIC
Excerpt: as §1

[27] = test system: Ser. marcescens A20019; test: as above; conditions: Serratia marcescens; Ser. marcescens A20019; Mueller-Hinton medium; read-out: MIC
Excerpt: as §1

[28] = test system: E. coli R5; test: as above; conditions: Escherichia coli; E. coli R5; Mueller-Hinton medium; read-out: MIC
Excerpt: as §1

[29] = test system: Pr. morganii A20031; test: as above; conditions: Morganella morganii; Pr. morganii A20031; Mueller-Hinton medium; read-out: MIC
Excerpt: as §1

[30] = test system: E. coli JR35/C600; test: as above; conditions: Escherichia coli
Excerpt: as §1

[31] = test system: E. coli A20895; test: as above; conditions: Escherichia coli; E. coli A20895; Mueller-Hinton medium; read-out: MIC
Excerpt: as §1

[32] = test system: Pseudomonas sp. A20621; test: as above; conditions: Pseudomonas sp. A20621; Mueller-Hinton medium; read-out: MIC
Excerpt: as §1

[33] = test system: a variety of gram-positive and gram-negative bacteria; test: Antibacterial activity overall (MIC, Steers agar-dilution method); conditions: in words
Excerpt: as §1

[34] = test system: Pseudomonas aeruginosa; test: Antibacterial activity against Pseudomonas aeruginosa (MIC, Steers agar-dilution method); conditions: in words
Excerpt: as §1

SMILES	MIC [1]	MIC [2]	MIC [3]	MIC [4]	MIC [5]	MIC [6]	MIC [7]	MIC [8]	MIC [9]	MIC [10]	MIC [11]	MIC [12]	MIC [13]	MIC [14]	MIC [15]	MIC [16]	MIC [17]	MIC [18]	MIC [19]	MIC [20]	other results
NCC[C@H](O)C(=O)N[C@@H]1C[C@H](N)[C@@H](O[C@H]2O[C@H](CN)C[C@H](O)[C@H]2N)[C@H](O[C@@H]2O[C@H](CO)[C@H](O)[C@H]2O)[C@H]1O [Bu-1975C1, 4'-deoxybutirosin A]	1.6 µg/mL (≈ 2.97 µM)	3.1 µg/mL (≈ 5.75 µM)	0.8 µg/mL (≈ 1.48 µM)	6.3 µg/mL (≈ 11.7 µM)	25 µg/mL (≈ 46.3 µM)	3.1 µg/mL (≈ 5.75 µM)	> 100 µg/mL	6.3 µg/mL (≈ 11.7 µM)	1.6 µg/mL (≈ 2.97 µM)	25 µg/mL (≈ 46.3 µM)	1.6 µg/mL (≈ 2.97 µM)	> 100 µg/mL	25 µg/mL (≈ 46.3 µM)	> 100 µg/mL	0.8 µg/mL (≈ 1.48 µM)	50 µg/mL (≈ 92.7 µM)	1.6 µg/mL (≈ 2.97 µM)	> 100 µg/mL	1.6 µg/mL (≈ 2.97 µM)	3.1 µg/mL (≈ 5.75 µM)	MIC [21]: 3.1 µg/mL (≈ 5.75 µM); MIC [22]: 6.3 µg/mL (≈ 11.7 µM); MIC [23]: 6.3 µg/mL (≈ 11.7 µM); MIC [24]: 1.6 µg/mL (≈ 2.97 µM); MIC [25]: 6.3 µg/mL (≈ 11.7 µM); MIC [26]: 6.3 µg/mL (≈ 11.7 µM); MIC [27]: 6.3 µg/mL (≈ 11.7 µM); MIC [28]: 3.1 µg/mL (≈ 5.75 µM); MIC [29]: 3.1 µg/mL (≈ 5.75 µM); MIC [30]: 0.8 µg/mL (≈ 1.48 µM); MIC [31]: 3.1 µg/mL (≈ 5.75 µM); MIC [32]: > 100 µg/mL
NCC[C@H](O)C(=O)N[C@@H]1C[C@H](N)[C@@H](O[C@H]2O[C@H](CN)[C@@H](O)C[C@H]2N)[C@H](O[C@@H]2O[C@H](CO)[C@H](O)[C@H]2O)[C@H]1O [Compound 11, 3'-deoxybutirosin A]	0.8 µg/mL (≈ 1.48 µM)	3.1 µg/mL (≈ 5.75 µM)	0.8 µg/mL (≈ 1.48 µM)	3.1 µg/mL (≈ 5.75 µM)	12.5 µg/mL (≈ 23.2 µM)	3.1 µg/mL (≈ 5.75 µM)	25 µg/mL (≈ 46.3 µM)	3.1 µg/mL (≈ 5.75 µM)	0.8 µg/mL (≈ 1.48 µM)	12.5 µg/mL (≈ 23.2 µM)	1.6 µg/mL (≈ 2.97 µM)	25 µg/mL (≈ 46.3 µM)	12.5 µg/mL (≈ 23.2 µM)	> 100 µg/mL	0.4 µg/mL (≈ 0.741 µM)	50 µg/mL (≈ 92.7 µM)	1.6 µg/mL (≈ 2.97 µM)	> 100 µg/mL	1.6 µg/mL (≈ 2.97 µM)	1.6 µg/mL (≈ 2.97 µM)	antibacterial activity compared with butirosin A and 4'-deoxybutirosin A [33]: good antibacterial activity that in many respects is superior to butirosin A itself and in some respects superior to 4'-deoxybutirosin A; antibacterial activity compared with butirosin A and 4'-deoxybutirosin A ([33]; listed as compound 11): equal to or superior in most respects to butirosin A and 4'-deoxybutirosin A; activity against Pseudomonas aeruginosa [34]: particularly improved in its activity against Pseudomonas aeruginosa; MIC [21]: 1.6 µg/mL (≈ 2.97 µM); MIC [22]: 3.1 µg/mL (≈ 5.75 µM); MIC [23]: 3.1 µg/mL (≈ 5.75 µM); MIC [24]: 1.6 µg/mL (≈ 2.97 µM); MIC [25]: 3.1 µg/mL (≈ 5.75 µM); MIC [26]: 3.1 µg/mL (≈ 5.75 µM); MIC [27]: 6.3 µg/mL (≈ 11.7 µM); MIC [28]: 3.1 µg/mL (≈ 5.75 µM); MIC [29]: 3.1 µg/mL (≈ 5.75 µM); MIC [30]: 0.8 µg/mL (≈ 1.48 µM); MIC [31]: 3.1 µg/mL (≈ 5.75 µM); MIC [32]: 100 µg/mL (≈ 185 µM)
